Experimental data from article PMC12396409, “Screening and hit evaluation of a microbial metabolite library against the pathogenic Plasmodium falciparum and Toxoplasma gondii parasites” (International Journal for Parasitology: Drugs and Drug …, 2025).
Like-named read-outs stand apart in the source and are kept apart here.

Tests used:
[1] = test system: T. gondii RH strain (RH-Tub-eYFP) tachyzoites; experiment: microbe, parasite or virus in culture; type: cell-based, Toxoplasma gondii; conditions: 72 h; for Tg_72h_%Growth_Rep1 / Tg_72h_%Growth_Rep2: % growth; for percent parasite growth at 2 µg/mL: screen at 2 μg/mL
[2] = test system: P. falciparum 3D7 parasites; experiment: P. falciparum growth inhibition assay, 2-cycle (120 h treatment), delayed-death screen and dose-response; type: cell-based, Plasmodium falciparum; conditions: for Pf_120h_%Growth_Rep1 / Pf_120h_%Growth_Rep2: % growth
[3] = test system: P. falciparum 3D7 parasites; experiment: P. falciparum growth inhibition assay, 1-cycle (72 h treatment), SYBR DNA staining (library screen at 2 μg/mL and dose-response); type: cell-based, Plasmodium falciparum; conditions: for Pf_72h_%Growth_Rep1 / Pf_72h_%Growth_Rep2: % growth
[4] = T. gondii, parasite screen 2 μg/mL, replicate 1
[5] = T. gondii, parasite screen 2 μg/mL, replicate 2
[6] = P. falciparum, 120 h, parasite screen 2 μg/mL, replicate 1
[7] = P. falciparum, 120 h, parasite screen 2 μg/mL, replicate 2
[8] = P. falciparum, 72 h, parasite screen 2 μg/mL, replicate 1
[9] = P. falciparum, 72 h, parasite screen 2 μg/mL, replicate 2
[10] = Toxoplasma gondii, T. gondii, replicate 1, read-out: Tg_72h_%Growth_Rep1
[11] = Toxoplasma gondii, T. gondii, replicate 2, read-out: Tg_72h_%Growth_Rep2

CCOC(=O)[C@H](Cc1ccccc1)NC(=O)c1cc(Cl)c2c(c1O)C(=O)O[C@H](C)C2 [BIA-O1589]
Tg_72h_%Growth_Rep1 ([1]; T. gondii, parasite screen at 2 μg/mL, replicate 1): 74.06% | Tg_72h_%Growth_Rep2 ([1]; T. gondii, parasite screen at 2 μg/mL, replicate 2): 66.00% | Pf_120h_%Growth_Rep1 ([2]; P. falciparum 3D7, 120 h, parasite screen at 2 μg/mL, replicate 1): 89.48% | Pf_120h_%Growth_Rep2 ([2]; P. falciparum 3D7, 120 h, parasite screen at 2 μg/mL, replicate 2): 144.99% | Pf_72h_%Growth_Rep1 ([3]; P. falciparum 3D7, 72 h, parasite screen at 2 μg/mL, replicate 1): 85.35% | Pf_72h_%Growth_Rep2 ([3]; P. falciparum 3D7, 72 h, parasite screen at 2 μg/mL, replicate 2): 104.78%

C=C1CC[C@H](O)C(C)(C)[C@@H]1CC/C(C)=C/CC/C(C)=C/Cc1c(O)cc(C)oc1=O [Sartorypyrone D]
Tg_72h_%Growth_Rep1 [1, 4]: 121.13% | Tg_72h_%Growth_Rep2 [1, 5]: 88.47% | Pf_120h_%Growth_Rep1 [2, 6]: 72.77% | Pf_120h_%Growth_Rep2 [2, 7]: 7.76% | Pf_72h_%Growth_Rep1 [3, 8]: 81.94% | Pf_72h_%Growth_Rep2 [3, 9]: 66.06%

C=C1CC[C@H]2[C@@](C)(CC[C@H]3C(C)(C)[C@@H](OC(C)=O)CC[C@]23C)[C@@H]1Cc1c(O)cc(C)oc1=O [Aszonapyrone A]
Tg_72h_%Growth_Rep1 ([1]; library screen at 2 μg/mL, replicate 1): 111.51% | Tg_72h_%Growth_Rep2 ([1]; library screen at 2 μg/mL, replicate 2): 88.05% | Pf_120h_%Growth_Rep1 ([2]; library screen at 2 μg/mL, 120 h, replicate 1): 67.56% | Pf_120h_%Growth_Rep2 ([2]; library screen at 2 μg/mL, 120 h, replicate 2): 67.36% | Pf_72h_%Growth_Rep1 ([3]; library screen at 2 μg/mL, 72 h, replicate 1): 77.27% | Pf_72h_%Growth_Rep2 ([3]; library screen at 2 μg/mL, 72 h, replicate 2): 75.32%

Cc1cc(O)c2c(c1)C(=O)C13C(=C2O)C(=O)C2C(O)C1C1C(O)C3C(=O)C3=C(O)c4c(O)cc(C)cc4C(=O)C321 (centres unmarked) [Rugulosin - form]
Tg_72h_%Growth_Rep1 [1, 4]: 9.47% | Tg_72h_%Growth_Rep2 [1, 5]: 14.48% | Pf_120h_%Growth_Rep1 [2, 6]: 0.79% | Pf_120h_%Growth_Rep2 [2, 7]: 8.22% | Pf_72h_%Growth_Rep1 [3, 8]: 4.91% | Pf_72h_%Growth_Rep2 [3, 9]: 2.27%

CN1C(=O)[C@@]23C[C@]4([C@]56C[C@@]78SS[C@@](CO)(C(=O)N7[C@H]5Nc5ccccc56)N(C)C8=O)c5ccccc5N[C@@H]4N2C(=O)[C@]1(CO)SS3 [Chaetocin]
percent parasite growth at 2 µg/mL [1, 10]: 0.84% | percent parasite growth at 2 µg/mL [1, 11]: 2.33% | activity at 2 µg/mL ([2]; Plasmodium falciparum, 3D7, 120 h, P. falciparum, 120 h, screen at 2 μg/mL, replicate 1, read-out: Pf_120h_%Growth_Rep1): 16.4% | activity at 2 µg/mL ([2]; Plasmodium falciparum, 3D7, 120 h, P. falciparum, 120 h, screen at 2 μg/mL, replicate 2, read-out: Pf_120h_%Growth_Rep2): 23.8% | activity at 2 µg/mL ([3]; Plasmodium falciparum, 3D7, 72 h, P. falciparum, 72 h, screen at 2 μg/mL, replicate 1, read-out: Pf_72h_%Growth_Rep1): 10.9% | activity at 2 µg/mL ([3]; Plasmodium falciparum, 3D7, 72 h, P. falciparum, 72 h, screen at 2 μg/mL, replicate 2, read-out: Pf_72h_%Growth_Rep2): 11.2%

CCO[C@@H]1[C@@H](OC)[C@H](C)O[C@@H](O[C@@H]2C[C@H]3CC[C@@H]4[C@@H](C=C5C(=O)[C@H](C)[C@@H](O)CCC[C@H](CC)OC(=O)C[C@H]54)[C@@H]3C2)[C@@H]1OC
Tg_72h_%Growth_Rep1 [1, 4]: 110.35% | Tg_72h_%Growth_Rep2 [1, 5]: 84.17% | Pf_120h_%Growth_Rep1 [2, 6]: 31.22% | Pf_120h_%Growth_Rep2 [2, 7]: 24.15% | Pf_72h_%Growth_Rep1 [3, 8]: 35.55% | Pf_72h_%Growth_Rep2 [3, 9]: 25.61%

C=C[C@]1(C)C[C@@H](OC(=O)CSCCN(CC)CC)[C@]2(C)[C@H](C)CC[C@]3(CCC(=O)[C@H]32)[C@@H](C)[C@@H]1O [Tiamulin, reference compound]
percent parasite growth at 2 µg/mL [1, 10]: 55.8% | percent parasite growth at 2 µg/mL [1, 11]: 29.4% | IC50 ([1]; Toxoplasma gondii, RH strain, mean ± S.D., n ≥ 3, read-out: IC50 (μM), T. gondii (converted)): > 1 µM | Screen (T. gondii) ([1]; library screen at 2 μg/mL, RH strain): I | delayed-death activity in the 120 h screen against P. falciparum ([2]; 2 μg/mL, criteria: ≥40 % growth at 72 h, ≤20 % growth at 120 h, at least 5-fold): delayed-death activity | 3) Fold change (72 h/120 h) ([2]; P. falciparum, growth at 72 h / growth at 120 h, 2 μg/mL): 7.0 | IC50 ([2]; Plasmodium falciparum, 3D7, read-out: IC50, P. falciparum, 120 h dose-response (delayed-death)): ~1000 nM | activity at 2 µg/mL ([2]; Plasmodium falciparum, 3D7; P. falciparum, 2 μg/mL, 120 h; read-out: 2) Growth (%) at 120 h): 7.81% | activity at 2 µg/mL ([2]; Plasmodium falciparum, 3D7, P. falciparum, 120 h, screen at 2 μg/mL, replicate 1, read-out: Pf_120h_%Growth_Rep1): 6.75% | activity at 2 µg/mL ([2]; Plasmodium falciparum, 3D7, P. falciparum, 120 h, screen at 2 μg/mL, replicate 2, read-out: Pf_120h_%Growth_Rep2): 8.86% | activity at 2 µg/mL ([3]; Plasmodium falciparum, 3D7; P. falciparum, 2 μg/mL, 72 h; read-out: 1) Growth (%) at 72 h): 55% | activity at 2 µg/mL ([3]; Plasmodium falciparum, 3D7, P. falciparum, 72 h, screen at 2 μg/mL, replicate 1, read-out: Pf_72h_%Growth_Rep1): 61.3% | activity at 2 µg/mL ([3]; Plasmodium falciparum, 3D7, P. falciparum, 72 h, screen at 2 μg/mL, replicate 2, read-out: Pf_72h_%Growth_Rep2): 48.7% | IC50 ([3]; Plasmodium falciparum, 3D7, 72 h treatment, mean ± S.D., n ≥ 3, read-out: IC50 (μM), P. falciparum): > 1 µM
